How the values were obtained:
Various cells = assay: Cytotoxicity test (WST-1 cell viability); assay type: cell-based; conditions: 0.01-100 μM, 24 hours
Method: intravenous; IP, intraperitoneal; Tmax, Time to maximum plasm concentration; Cmax, Maximum plasma concentration after intraperitoneal injection; AUC, Area under the curve; CL, clearance; Vss, Volume of distribution at steady state; T1/2, Elimination half-life; F, […]
Table R2. Cytotoxicity test for KY19382 […]
viability was measured using WST-1. The IC50 value was determined from the dose-response […]
This manuscript addresses the role of CXXC5, a negative regulator of Wnt/beta-Catenin signaling, on growth plate senescence and associated longitudinal bone growth.
Authors used a peptide PTD-DBMP, and a small molecule KY19382, which interferes with GSK-3b activity and CXXC5-DVL interaction. Such interference activates Wnt/beta-catenin signaling that delays growth plate senescence, resulting in longitudinal bone growth in mice; thereby proposing CXXC5 as a potential target to enhance longitudinal growth of children at the risk of height retardation. This is a well
(1 picture or pasted object on this page, not shown here)

C28/I2 cells = assay: CXXC5/β-catenin expression and chondrogenic markers in C28/I2 cells; assay type: cell-based, human
Method: Figure 2. The effects of estrogen on CXXC5 expression and the mediation of growth plate senescence. (A) Immunoblotting (upper) and quantitative analyses (mean ± SEM, n = 3) (lower) in C28/I2 cells treated with 100 nM E2 (17β-estradiol) for 0, 1, 3, 6, 24, 48, or 72 h. (B) Immunocytochemical staining (left) and quantitative analyses of the fluorescent intensity (mean ± SEM, n = 3; t test, **P < 0.005 and ***P < 0.0005) (right) in C28/I2 cells treated with 100 nM E2 for 40 h. Scale bars, 100 μm. (C–E) Tibial organ cultures (E15.5) incubated with 100 nM E2 for 6 d. Representative images at 6 d (C, left) and quantitative analyses of the growth changes (mean ± SEM, n = 5; t test, ***P < 0.0005) (C, right). Scale bar, 1 mm. H&E staining (D, left) and quantification of each zone height (mean ± SEM, n = 5; t test, *P < 0.05 and **P < 0.005) (D, right) in the growth plate. Scale bar, 200 μm. IHC analyses of β-catenin and CXXC5 (E). Scale bars, 50 μm. (F) 3-wk-old Cxxc5^+/+ and Cxxc5^−/− mice were treated with E2 cypionate (70 μg/kg) by i.m. injection once a week for 3 wk (n = 3–4). Representative images of H&E staining and IHC analyses for BrdU, β-catenin, and CXXC5 in the growth plates of proximal tibiae are shown. The area within the dashed lines indicates the growth plate zone. Black and white scale bars, 50 μm. Yellow scale bar, 20 μm. RZ, resting zone; PZ, proliferative zone; HZ, hypertrophic zone.
Figure S7. The effects of KY19382 on chondrocyte proliferation and differentiation. (A) ATDC5 cells treated with 0.01 or 0.1 μM concentrations of KY19382 were incubated for 48 h followed by treatment with 50 μM BrdU for 12 h before harvesting. BrdU incorporation was visualized by immunofluorescent staining using a specific BrdU antibody (left). BrdU-positive cells were quantified (mean ± SEM, n = 3; ANOVA, P = 7.8 × 10^−5; Tukey’s post-hoc test, *P < 0.05 and ***P < 0.0005) (right). Scale bar, 100 μm. (B) qRT-PCR analyses of mRNA levels of chondrogenic differentiation markers in ATDC5 cells incubated with 0.1 μM KY19382 for 3 d in three-dimensional alginate beads after transfection with control siRNA or Ctnnb1 siRNA (mean ± SEM, n = 3; t test, *P < 0.05, **P < 0.005, and ***P < 0.0005). (C) qRT-PCR analyses of mRNA levels of chondrogenic differentiation markers in C28/I2 cells incubated with 1 μM KY19382 for 3 d in three-dimensional alginate beads (mean ± SEM, n = 3; t test, *P < 0.05 and ***P < 0.0005). n.s., no significance.
The mouse chondrogenic cell line, ATDC5, was obtained from the RIKEN Cell Bank. The human juvenile costal chondrocyte cell line, C28/I2, was provided by Dr. W U Kim (Catholic University, Korea). HEK293-TOP cells (HEK293 cells containing the chromosomally incorporated TOPFlash gene) were provided by Dr. S Oh (Kuk Min University, Korea). […]

Structure (SMILES): CON=C1C(=C2C(=O)Nc3cc(Cl)c(Cl)cc32)Nc2ccccc21 [KY19382, 5,6-dichloroindirubin-3′-methoxime]
- cytotoxicity in variety of cell types (Various cells): does not induce cytotoxicity
- mRNA levels of chondrogenic markers (C28/I2 cells; 1 μM, 3 d, alginate beads): up-regulated

Structure (SMILES): C[C@]12CC[C@@H]3c4ccc(O)cc4CC[C@H]3[C@@H]1CC[C@@H]2O [E2, 17β-estradiol]
- time of maximal CXXC5 level (C28/I2 cells; 100 nM): 24 h
- CXXC5 expression (C28/I2 cells; 100 nM, 0-72 h): induced
- β-catenin level (C28/I2 cells; 100 nM, after 24 h): reduced
